Measurements from the NIST ThermoML archive (doi:10.1016/j.jct.2006.07.012).

Conditions: Fluid (supercritical or subcritical phases), Bellows volumetry

CCC [propane]
Conditions	mass density [kg/m3]
280 K, 581.4 kPa	519.39
280 K, 604.8 kPa	519.45
280 K, 628.1 kPa	519.49
280 K, 651.4 kPa	519.57
280 K, 674.7 kPa	519.62
280 K, 698 kPa	519.69
280 K, 721.4 kPa	519.75
300 K, 1006 kPa	489.83
300 K, 1029.4 kPa	489.89
300 K, 1052.6 kPa	489.98
300 K, 1075.9 kPa	490.05
300 K, 1099.3 kPa	490.1
300 K, 1122.6 kPa	490.2
300 K, 1145.9 kPa	490.3
320 K, 1611.1 kPa	455.49
320 K, 1634.4 kPa	455.61
320 K, 1657.6 kPa	455.75
320 K, 1680.9 kPa	455.88
320 K, 1704.2 kPa	455.99
320 K, 1727.5 kPa	456.09
320 K, 1750.7 kPa	456.24
340 K, 2447.1 kPa	412.74
340 K, 2470.3 kPa	412.98
340 K, 2493.4 kPa	413.23
340 K, 2516.6 kPa	413.48
340 K, 2539.8 kPa	413.66
340 K, 2563 kPa	413.88
340 K, 2586.2 kPa	414.08
360 K, 3558 kPa	346.61
360 K, 3558.8 kPa	346.43
360 K, 3566.8 kPa	346.83
360 K, 3569.1 kPa	347.17
360 K, 3569.9 kPa	346.97
360 K, 3580.3 kPa	347.61
360 K, 3591.6 kPa	348.04
360 K, 3592.2 kPa	347.94
360 K, 3602.8 kPa	348.46
360 K, 3614 kPa	348.96
360 K, 3614.5 kPa	348.91
360 K, 3622.6 kPa	349.31
360 K, 3625.2 kPa	349.4
360 K, 3636.5 kPa	349.82
360 K, 3636.9 kPa	349.82
360 K, 3647.8 kPa	350.25
360 K, 3659 kPa	350.7
360 K, 3659.4 kPa	350.7
360 K, 3670.3 kPa	351.13
360 K, 3678.7 kPa	351.52
360 K, 3681.8 kPa	351.59
360 K, 3704.3 kPa	352.44
360 K, 3726.8 kPa	353.19
365 K, 3897.8 kPa	317.84
365 K, 3903 kPa	318.4
365 K, 3923.7 kPa	320.49
365 K, 3944.7 kPa	322.39
365 K, 3965.9 kPa	324.14
365 K, 3987.2 kPa	325.86
365 K, 4008.7 kPa	327.39
365 K, 4030.4 kPa	328.84
